Reference: patent US20240360134A1, “PYRAZOLOPYRIMIDINES AND THEIR USES AS PDGFR INHIBITORS” (priority 2021, published 2024)

Assays:
PDGFRβ = PDGFRβ (Rattus norvegicus (Rat), UniProt Q05030); test: PDGFRβ Cellular Assay (PDGFRb P-Y751 HTRF, PDGF-BB stimulated A10 cells); type: cell-based; conditions: A10 cells, 3 hours compound, 15 ng/mL PDGFbb for 10 minutes; read-out: PDGFR Cellular IC50
Procedure, shortened: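 Rat A10 cells plated overnight were treated with compound for 3 h, stimulated with rat PDGF-BB (working stock 100 ng/mL in 10% FBS medium) for 10 min, then lysed.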

[1] = molecular target: His6-TEV-PDGFRβ (557-1016) (Homo sapiens (Human), UniProt P09619); test: PDGFRβ HTRF Assay; type: biochemical; conditions: 800 μM ATP, 0.5 μM TK-substrate biotin peptide, 30 min pre-incubation, 3 hours reaction; read-out: PDGFR HTRF IC50
His6-TEV-PDGFRβ (557-1016), sequence (P09619 whole entry, looked up): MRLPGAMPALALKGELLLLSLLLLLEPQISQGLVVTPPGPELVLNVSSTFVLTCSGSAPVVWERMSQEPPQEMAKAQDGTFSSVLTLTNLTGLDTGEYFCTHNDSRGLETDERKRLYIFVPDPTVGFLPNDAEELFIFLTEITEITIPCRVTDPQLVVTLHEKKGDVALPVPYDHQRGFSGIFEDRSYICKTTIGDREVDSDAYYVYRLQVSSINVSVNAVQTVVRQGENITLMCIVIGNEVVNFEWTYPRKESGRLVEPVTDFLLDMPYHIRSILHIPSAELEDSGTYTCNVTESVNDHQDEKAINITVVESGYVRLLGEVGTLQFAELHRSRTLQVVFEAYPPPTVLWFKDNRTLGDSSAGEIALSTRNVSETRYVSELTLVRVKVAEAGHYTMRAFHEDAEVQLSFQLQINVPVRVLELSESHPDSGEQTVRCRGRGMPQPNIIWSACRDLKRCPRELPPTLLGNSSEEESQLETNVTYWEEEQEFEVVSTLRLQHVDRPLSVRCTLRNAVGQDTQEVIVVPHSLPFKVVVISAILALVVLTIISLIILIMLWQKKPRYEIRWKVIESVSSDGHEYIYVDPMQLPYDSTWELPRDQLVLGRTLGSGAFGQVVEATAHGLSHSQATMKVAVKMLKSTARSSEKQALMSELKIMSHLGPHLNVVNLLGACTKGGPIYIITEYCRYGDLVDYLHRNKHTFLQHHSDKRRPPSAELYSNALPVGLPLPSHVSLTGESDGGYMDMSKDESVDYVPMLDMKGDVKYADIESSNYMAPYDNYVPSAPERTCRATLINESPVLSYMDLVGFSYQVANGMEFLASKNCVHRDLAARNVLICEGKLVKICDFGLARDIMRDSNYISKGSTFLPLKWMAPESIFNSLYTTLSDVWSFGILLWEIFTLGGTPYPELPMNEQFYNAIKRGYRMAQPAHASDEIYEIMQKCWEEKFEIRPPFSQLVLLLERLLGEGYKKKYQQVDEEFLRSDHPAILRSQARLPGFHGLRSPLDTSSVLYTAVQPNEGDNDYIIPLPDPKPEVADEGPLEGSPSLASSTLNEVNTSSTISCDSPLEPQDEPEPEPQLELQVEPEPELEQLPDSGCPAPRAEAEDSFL

VEGFR2, unphosphorylated = VEGFR2, unphosphorylated (Homo sapiens (Human), UniProt P35968); test: VEGFR ADP GLO assay; type: biochemical; conditions: 5 nM VEGFR2, 1.2 mM ATP, 1 mg/mL Srctide, 180 min
VEGFR2, unphosphorylated, sequence (P35968 whole entry, looked up): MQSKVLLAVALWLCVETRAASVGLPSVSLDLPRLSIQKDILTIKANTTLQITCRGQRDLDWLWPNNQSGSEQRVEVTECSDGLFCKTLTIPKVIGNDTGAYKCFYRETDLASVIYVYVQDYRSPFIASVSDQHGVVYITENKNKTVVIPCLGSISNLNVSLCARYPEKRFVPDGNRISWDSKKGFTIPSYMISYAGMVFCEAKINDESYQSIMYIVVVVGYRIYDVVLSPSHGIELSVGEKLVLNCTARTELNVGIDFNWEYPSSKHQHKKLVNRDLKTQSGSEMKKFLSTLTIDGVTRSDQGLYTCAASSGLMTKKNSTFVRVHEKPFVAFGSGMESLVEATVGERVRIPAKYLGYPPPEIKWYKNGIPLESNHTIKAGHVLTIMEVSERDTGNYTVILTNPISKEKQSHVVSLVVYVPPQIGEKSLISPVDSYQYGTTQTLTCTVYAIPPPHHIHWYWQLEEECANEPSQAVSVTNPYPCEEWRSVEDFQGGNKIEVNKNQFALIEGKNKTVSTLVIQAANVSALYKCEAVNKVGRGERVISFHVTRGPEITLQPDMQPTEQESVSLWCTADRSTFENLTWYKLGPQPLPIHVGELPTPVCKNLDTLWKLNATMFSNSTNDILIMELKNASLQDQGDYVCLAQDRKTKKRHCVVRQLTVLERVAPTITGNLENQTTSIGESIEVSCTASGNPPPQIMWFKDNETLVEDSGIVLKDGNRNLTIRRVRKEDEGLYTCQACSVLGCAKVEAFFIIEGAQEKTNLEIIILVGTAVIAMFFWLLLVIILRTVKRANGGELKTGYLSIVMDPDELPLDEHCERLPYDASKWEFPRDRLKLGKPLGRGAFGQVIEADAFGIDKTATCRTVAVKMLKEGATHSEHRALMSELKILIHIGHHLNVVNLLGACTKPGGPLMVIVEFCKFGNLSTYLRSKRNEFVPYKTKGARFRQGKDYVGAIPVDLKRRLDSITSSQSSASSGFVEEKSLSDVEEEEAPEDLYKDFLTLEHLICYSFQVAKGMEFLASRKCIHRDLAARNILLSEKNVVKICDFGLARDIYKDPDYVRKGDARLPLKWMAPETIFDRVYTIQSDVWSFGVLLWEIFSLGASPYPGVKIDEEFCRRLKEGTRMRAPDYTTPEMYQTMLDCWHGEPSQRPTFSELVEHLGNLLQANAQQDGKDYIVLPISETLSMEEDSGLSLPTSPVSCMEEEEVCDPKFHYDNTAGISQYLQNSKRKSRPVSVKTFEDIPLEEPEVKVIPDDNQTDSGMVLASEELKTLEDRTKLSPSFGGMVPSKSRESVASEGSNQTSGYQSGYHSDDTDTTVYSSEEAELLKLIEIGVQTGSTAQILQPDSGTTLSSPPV
Procedure, shortened: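 Unphosphorylated kinase (10 nM 2× solution) pre-incubated 30 min at RT with compounds (11-point, 3-fold, top 10 µM), then reacted 180 min with srctide and ATP (2×: 2 mg/mL, 2.4 mM) in HEPES pH 7.5 buffer. ADP read by luminescence. IC50 from 4-parameter fit, normalized to DMSO and 1 µM TAK-593.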

[2] = molecular target: Tb-labeled inactive PDGFRβ (Homo sapiens (Human), UniProt P09619); test: biochemical; type: binding; conditions: read-out: PDGFR Lantha IC50
Tb-labeled inactive PDGFRβ, sequence (P09619 whole entry, looked up): as the sequence (P09619 whole entry, looked up) above

PDGFRβ, sequence (Q05030 whole entry, looked up): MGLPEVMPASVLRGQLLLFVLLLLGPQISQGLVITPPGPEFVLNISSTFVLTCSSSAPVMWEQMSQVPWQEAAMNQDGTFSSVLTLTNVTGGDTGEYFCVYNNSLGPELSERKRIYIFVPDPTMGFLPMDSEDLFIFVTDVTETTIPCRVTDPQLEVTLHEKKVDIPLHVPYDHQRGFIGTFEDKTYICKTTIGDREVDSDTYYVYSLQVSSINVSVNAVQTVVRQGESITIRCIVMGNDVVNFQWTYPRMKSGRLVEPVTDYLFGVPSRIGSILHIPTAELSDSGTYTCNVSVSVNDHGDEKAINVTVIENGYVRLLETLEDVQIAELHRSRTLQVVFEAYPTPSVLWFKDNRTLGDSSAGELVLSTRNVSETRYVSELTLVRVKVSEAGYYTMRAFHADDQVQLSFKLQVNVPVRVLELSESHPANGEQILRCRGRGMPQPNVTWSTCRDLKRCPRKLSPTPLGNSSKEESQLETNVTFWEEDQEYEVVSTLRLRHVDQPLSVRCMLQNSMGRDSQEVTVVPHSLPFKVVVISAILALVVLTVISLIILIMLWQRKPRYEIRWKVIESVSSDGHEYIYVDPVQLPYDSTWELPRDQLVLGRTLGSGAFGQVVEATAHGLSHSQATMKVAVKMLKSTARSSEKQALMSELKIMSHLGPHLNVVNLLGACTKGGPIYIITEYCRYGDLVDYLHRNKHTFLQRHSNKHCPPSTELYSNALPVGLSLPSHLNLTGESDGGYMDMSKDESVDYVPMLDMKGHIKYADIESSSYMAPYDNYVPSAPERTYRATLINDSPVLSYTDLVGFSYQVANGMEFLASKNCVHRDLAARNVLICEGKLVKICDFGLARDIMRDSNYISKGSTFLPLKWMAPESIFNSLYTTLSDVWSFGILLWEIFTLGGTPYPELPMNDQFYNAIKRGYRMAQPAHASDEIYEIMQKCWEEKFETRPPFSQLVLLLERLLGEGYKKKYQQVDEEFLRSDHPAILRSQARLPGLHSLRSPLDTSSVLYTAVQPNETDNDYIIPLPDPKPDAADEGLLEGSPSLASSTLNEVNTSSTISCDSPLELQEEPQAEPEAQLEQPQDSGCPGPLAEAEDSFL

Row | SMILES | IC50 (PDGFRβ) [nM] | IC50 [1] [nM] | IC50 (VEGFR2, unphosphorylated) [µM] | IC50 [2] [nM]
1 | COC1CCN(CC(=O)Nc2cnc(C)c(Nc3nn(C)c4nc(Nc5cnn(C)c5)ncc34)c2)CC1 [Example 134, 2-(4-methoxypiperidin-1-yl)-N-(6-methyl-5-((1-methyl-6-((1-methyl-1H-pyrazol-4-yl)amino)-1H-pyrazolo[3,4-d]pyrimidin-3-yl)amino)pyridin-3-yl)acetamide] | 7.4 | 0.43 | > 7.5 | 3.1
2 | Cc1ncc(C(=O)NCCN(CCCO)C2CCCC2)cc1Nc1nn(C)c2nc(Nc3cnn(C)c3)ncc12 [Example 96, N-(2-(cyclopentyl(3-hydroxypropyl)amino)ethyl)-6-methyl-5-((1-methyl-6-((1-methyl-1H-pyrazol-4-yl)amino)-1H-pyrazolo[3,4-d]pyrimidin-3-yl)amino)nicotinamide] | 139 | 0.43 | > 7.5 | 2.8
3 | Cc1ncc(C(=O)NCCN2CCC23CCC3)cc1Nc1nn(C)c2nc(Nc3cnn(C)c3)ncc12 [Example 149, N-(2-(1-azaspiro[3.3]heptan-1-yl)ethyl)-6-methyl-5-((1-methyl-6-((1-methyl-1H-pyrazol-4-yl)amino)-1H-pyrazolo [3,4-d]pyrimidin-3-yl)amino)nicotinamide] | 25.4 | 0.36 | 6.56 | 2.2
4 | COCCn1cc(Nc2ncc3c(Nc4cc(NC(=O)CN5CC6CCC5CC6)cnc4C)nn(C)c3n2)cn1 [Example 127, 2-(2-azabicyclo[2.2.2]octan-2-yl)-N-(5-((6-((1-(2-methoxyethyl)-1H-pyrazol-4-yl)amino)-1-methyl-1H-pyrazolo[3,4-d]pyrimidin-3-yl)amino)-6-methylpyridin-3-yl)acetamide] | 2.6 | 0.27 | 6.49 | 1.4
5 | Cc1ccc(C(=O)NCCN2CC(C)(C)C2)cc1Nc1nn(C)c2nc(Nc3cnn(C)c3)ncc12 [Example 64, N-(2-(3,3-dimethylazetidin-1-yl)ethyl)-4-methyl-3-((1-methyl-6-((1-methyl-1H-pyrazol-4-yl)amino)-1H-pyrazolo[3,4-d]pyrimidin-3-yl)amino)benzamide] | 8.9 | 0.26 | 1.03 | 2.1
6 | Cc1ncc(C(=O)NCCN2CCCC2(C)C)cc1Nc1nn(C)c2nc(Nc3cncc(C(=O)O)c3)ncc12 [Example 30, 5-((3-((5-((2-(2,2-dimethylpyrrolidin-1-yl)ethyl)carbamoyl)-2-methylpyridin-3-yl)amino)-1-methyl-1H-pyrazolo[3,4-d]pyrimidin-6-yl)amino)nicotinic acid] | > 10000 | 3.8 | > 10 | 36.8
7 | COCCn1cc(Nc2ncc3c(Nc4cc(NC(=O)CN5CCC(C)(C)C5)cnc4C)nn(C)c3n2)cn1 [Example 129, 2-(3,3-dimethylpyrrolidin-1-yl)-N-(5-((6-((1-(2-methoxyethyl)-1H-pyrazol-4-yl)amino)-1-methyl-1H-pyrazolo[3,4-d]pyrimidin-3-yl)amino)-6-methylpyridin-3-yl)acetamide] | 2.4 | 0.27 | 1.42 | 1.3
8 | Cc1ncc(NC(=O)C2(C(=O)N3CCN(C)CC3)CC2)cc1Nc1nn(C)c2nc(Nc3cnn(C)c3)ncc12 [Example 116, N-(6-methyl-5-((1-methyl-6-((1-methyl-1H-pyrazol-4-yl)amino)-1H-pyrazolo[3,4-d]pyrimidin-3-yl)amino)pyridin-3-yl)-1-(4-methylpiperazine-1-carbonyl)cyclopropanecarboxamide] | 721 | 2.63 | > 7.5 | 59.4
9 | Cc1ncc(C(=O)NCCN(CCF)C2CCCC2)cc1Nc1nn(C)c2nc(Nc3cnn(C)c3)ncc12 [Example 152, N-(2-(cyclopentyl(2-fluoroethyl)amino)ethyl)-6-methyl-5-((1-methyl-6-((1-methyl-1H-pyrazol-4-yl)amino)-1H-pyrazolo[3,4-d]pyrimidin-3-yl)amino)nicotinamide] | 7.4 | 0.45 | 2.53 | 3.4
10 | Cc1ncc(C(=O)NCCN2CCC3(CC3)C2)cc1Nc1nn(C)c2nc(Nc3cnn(C)c3)ncc12 [Example 90, N-(2-(5-azaspiro[2.4]heptan-5-yl)ethyl)-6-methyl-5-((1-methyl-6-((1-methyl-1H-pyrazol-4-yl)amino)-1H-pyrazolo[3,4-d]pyrimidin-3-yl)amino)nicotinamide] | 27.2 | 0.25 | > 7.5 | 1.8
11 | Cc1ncc(C(=O)NCCN2CCCC2(C)C)cc1Nc1nn(C)c2nc(Nc3cnn(C)n3)ncc12 [Example 40, N-(2-(2,2-dimethylpyrrolidin-1-yl)ethyl)-6-methyl-5-((1-methyl-6-((2-methyl-2H-1,2,3-triazol-4-yl)amino)-1H-pyrazolo[3,4-d]pyrimidin-3-yl)amino)nicotinamide] | 14.1 | 1.22 | > 7.5 | 13
12 | Cc1ncc(C(=O)NCCN(CCO)C2CCCC2)cc1Nc1nn(C)c2nc(Nc3cnn(C)c3)ncc12 [Example 97, N-(2-(cyclopentyl(2-hydroxyethyl)amino)ethyl)-6-methyl-5-((1-methyl-6-((1-methyl-1H-pyrazol-4-yl)amino)-1H-pyrazolo[3,4-d]pyrimidin-3-yl)amino)nicotinamide] | 101 | 0.46 | > 7.5 | 2.4
13 | Cc1nn(C)cc1Nc1ncc2c(Nc3cc(C(=O)NCCN4CCCC4(C)C)cnc3C)nn(C)c2n1 [Example 161, 5-((6-((1,3-dimethyl-1H-pyrazol-4-yl)amino)-1-methyl-1H-pyrazolo[3,4-d]pyrimidin-3-yl)amino)-N-(2-(2,2-dimethylpyrrolidin-1-yl)ethyl)-6-methylnicotinamide] | 24.8 | 1.65 | > 7.5 | 13.3
14 | COCCn1cc(Nc2ncc3c(Nc4cc(C(=O)NCCN5CCCC56CCC6)cnc4C)nn(C)c3n2)cn1 [Example 147, N-(2-(5-azaspiro[3.4]octan-5-yl)ethyl)-5-((6-((1-(2-methoxyethyl)-1H-pyrazol-4-yl)amino)-1-methyl-1H-pyrazolo[3,4-d]pyrimidin-3-yl)amino)-6-methylnicotinamide] | 14.7 | 0.38 | 2.67 | 2.1
15 | Cn1cc(Nc2ncc3c(Nc4cc(C(=O)NCCN5CC(C)(C)C5)ccc4F)nn(C)c3n2)cn1 [Example 120, N-(2-(3,3-dimethylazetidin-1-yl)ethyl)-4-fluoro-3-((1-methyl-6-((1-methyl-1H-pyrazol-4-yl)amino)-1H-pyrazolo[3,4-d]pyrimidin-3-yl)amino)benzamide] | 9.9 | 0.32 | > 7.5 | 3.3
16 | Cc1ncc(C(=O)NCCN2C[C@H](C)O[C@@H](C)C2)cc1Nc1nn(C)c2nc(Nc3cncnc3)ncc12 [Example 114, N-(2-((2S,6S)-2,6-dimethylmorpholino)ethyl)-6-methyl-5-((1-methyl-6-(pyrimidin-5-ylamino)-1H-pyrazolo[3,4-d]pyrimidin-3-yl)amino)nicotinamide] | 72.9 | 0.88 | > 7.5 | 9.1
17 | Cc1ncc(C(=O)NCCN2CCC(F)(F)CC2)cc1Nc1nn(C)c2nc(Nc3cncnc3)ncc12 [Example 1, N-(2-(4,4-difluoropiperidin-1-yl)ethyl)-6-methyl-5-((1-methyl-6-(pyrimidin-5-ylamino)-1H-pyrazolo[3,4-d]pyrimidin-3-yl)amino)nicotinamide] | 12 | 0.65 | > 7.5 | 3.3
18 | Cc1ncc(C(=O)NCCN2CCCC2(C)C)cc1Nc1nn(C)c2nc(Nc3cccc(C(C)(C)C(=O)O)c3)ncc12 [Example 47, 2-(3-((3-((5-((2-(2,2-dimethylpyrrolidin-1-yl)ethyl)carbamoyl)-2-methylpyridin-3-yl)amino)-1-methyl-1H-pyrazolo[3,4-d]pyrimidin-6-yl)amino)phenyl)-2-methylpropanoic acid] | > 3000 | 2.58 | 2.42 | 14.6
19 | Cc1ncc(C(=O)NCCN2CC3CCC2CC3)cc1Nc1nn(C)c2nc(Nc3cnn(C)c3)ncc12 [Example 85, N-(2-(2-azabicyclo[2.2.2]octan-2-yl)ethyl)-6-methyl-5-((1-methyl-6-((1-methyl-1H-pyrazol-4-yl)amino)-1H-pyrazolo[3,4-d]pyrimidin-3-yl)amino)nicotinamide] | 71.3 | 0.27 | 6.6 | 1.7
20 | Cc1ncc(C(=O)NCCN(C)C2CCOCC2)cc1Nc1nn(C)c2nc(Nc3cncnc3)ncc12 [Example 10, 6-methyl-N-(2-(methyl(tetrahydro-2H-pyran-4-yl)amino)ethyl)-5-((1-methyl-6-(pyrimidin-5-ylamino)-1H-pyrazolo[3,4-d]pyrimidin-3-yl)amino)nicotinamide] | 204 | 0.63 | > 7.5 | 9.9
